# Key:
# sugar beet = assay: Test B pre/postemergence sugar beet; type: in vivo, Beta vulgaris
# Procedure, shortened: (§1)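 Test chemicals in a non-phytotoxic solvent mixture with surfactant were sprayed preemergence onto planted seeds and postemergence onto plants 2 to 18 cm tall (1- to 4-leaf stage). After twelve to sixteen days in a greenhouse, injury was visually rated against untreated controls from 0 (no effect) to 10 (complete control).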
# surinam grass = assay: Test B pre/postemergence surinam grass; type: in vivo, Brachiaria decumbens
# Procedure, shortened: as §1
# cocklebur = assay: Test B pre/postemergence cocklebur; type: in vivo, Xanthium strumarium
# Procedure, shortened: as §1
# purple nutsedge = assay: Test B pre/postemergence purple nutsedge; type: in vivo, Cyperus rotundus; conditions: Preemergence
# Procedure, shortened: as §1
# bamyardgrass = assay: Test B flood test barnyardgrass; type: in vivo, Echinochloa crus-galli
# Procedure, shortened: (§2)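 Each value is a visual injury score relative to controls, with 10 meaning complete control and 0 no effect. Evaluation took place twelve to sixteen days after the 2-leaf-stage plants were treated and kept in the greenhouse.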
# velvetleaf = assay: Test B pre/postemergence velvetleaf; type: in vivo, Abutilon theophrasti
# Procedure, shortened: as §1
# duck salad = assay: Test B flood test duck salad; type: in vivo, Heteranthera limosa
# Procedure, shortened: as §2
# wheat = assay: Test B pre/postemergence wheat; type: in vivo, Triticum aestivum
# Procedure, shortened: as §1
# corn = assay: Test B pre/postemergence corn; type: in vivo, Zea mays
# Procedure, shortened: as §1
# soybean = assay: Test B pre/postemergence soybean; type: in vivo, Glycine max
# Procedure, shortened: as §1
# blackgrass = assay: Test B pre/postemergence blackgrass; type: in vivo, Alopecurus myosuroides
# Procedure, shortened: as §1
# giant foxtail = assay: Test B pre/postemergence giant foxtail; type: in vivo, Setaria faberii
# Procedure, shortened: as §1
# smallflower flatsedge = assay: Test B flood test smallflower flatsedge; type: in vivo, Cyperus difformis
# Procedure, shortened: as §2
# rape = assay: Test B pre/postemergence rape; type: in vivo, Brassica napus
# Procedure, shortened: as §1
# crabgrass = assay: Test B pre/postemergence crabgrass; type: in vivo, Digitaria sanguinalis
# Procedure, shortened: as §1
# rice = assay: Test B flood test rice; type: in vivo, Oryza sativa
# Procedure, shortened: as §2
# bedstraw = assay: Test B pre/postemergence bedstraw; type: in vivo, Galium aparine
# Procedure, shortened: as §1
# [1] = Postemergence, Rate 250 g/ha, scale 0 to 10, 0 no effect, 10 complete control
# [2] = Postemergence, Rate 1000 g/ha, scale 0 to 10 (0 no effect, 10 complete control)
# [3] = Preemergence, Rate 125 g/ha, scale 0 to 10 (0 no effect, 10 complete control)
# [4] = Preemergence, Rate 250 g/ha, scale of 0 to 10 where 0 is no effect and 10 is complete control
# [5] = Preemergence, Rate 500 g/ha, scale 0 (no effect) to 10 (complete control)
# [6] = Rate 125 g/ha, Postemergence, scale 0 to 10, 0 no effect, 10 complete control
# [7] = Rate 1000 g/ha, Preemergence, scale 0 to 10 (0 no effect, 10 complete control)
# [8] = Rate 500 g/ha, Postemergence, 0 to 10 scale (0 no effect, 10 complete control)
# [9] = Rate 125 g/ha, Postemergence section (flood test species), scale 0 to 10, 0 no effect, 10 complete control
# [10] = Rate 250 g/ha, headed Pre-emergence (flood test species), scale 0 to 10 (0 no effect, 10 complete control)
# [11] = Rate 500 g/ha, Postemergence section of Table B, 0 to 10 scale (0 no effect, 10 complete control)
# [12] = Rate 500 g/ha, headed Pre-emergence (flood test species), scale 0 to 10 (0 no effect, 10 complete control)
# [13] = Rate 1000 g/ha, Pre-emergence (as headed), scale 0 to 10
# [14] = flood test, listed under Postemergence, Rate 250 g/ha, scale 0 to 10, 0 no effect, 10 complete control
# [15] = Rate 2000 g/ha, Pre-emergence (as headed), scale 0 to 10
compound,measurement,setting,value
"CC(C)N(C(=O)n1oc(=O)n(-c2ccc(Cl)cc2Cl)c1=O)c1ccc(F)cc1 [Compound 7, 4-(2,4-Dichlorophenyl)-N-(4-fluorophenyl)-N-(1-methylethyl)-3,5-dioxo-1,2,4-oxadiazolidine-2-carboxamide]",Sugarbeets plant response rating,sugar beet; [1],0
same,Sugarbeets plant response rating,sugar beet; [2],2
same,"Plant response rating, Sugarbeets",sugar beet; [3],0
same,"Plant response rating, Sugarbeets",sugar beet; [4],0
same,Sugarbeets plant response rating,sugar beet; [5],0
same,Sugarbeets plant response rating,sugar beet; [6],0
same,"Plant response rating, Sugarbeets",sugar beet; [7],0
same,B. signalgrass plant response rating,surinam grass; [1],0
same,B. signalgrass plant response rating,surinam grass; [2],6
same,"Plant response rating, B. signalgrass",surinam grass; [3],0
same,"Plant response rating, B. signalgrass",surinam grass; [4],0
same,B. signalgrass plant response rating,surinam grass; [5],0
same,B. signalgrass plant response rating,surinam grass; [6],0
same,B. signalgrass plant response rating,surinam grass; [8],3
same,"Plant response rating, B. signalgrass",surinam grass; [7],3
same,Cocklebur plant response rating,cocklebur; [1],0
same,Cocklebur plant response rating,cocklebur; [2],2
same,"Plant response rating, Cocklebur",cocklebur; [4],0
same,Cocklebur plant response rating,cocklebur; [5],0
same,Cocklebur plant response rating,cocklebur; [6],0
same,Cocklebur plant response rating,cocklebur; [8],0
same,"Plant response rating, Cocklebur",cocklebur; [7],0
same,"Plant response rating, Nutsedge","purple nutsedge; Rate 125 g/ha, scale 0 to 10 (0 no effect, 10 complete control)",0
same,"Plant response rating, Nutsedge","purple nutsedge; Rate 250 g/ha, scale of 0 to 10 where 0 is no effect and 10 is complete control",0
same,Nutsedge plant response rating,"purple nutsedge; Rate 500 g/ha, scale 0 (no effect) to 10 (complete control)",0
same,"Plant response rating, Nutsedge","purple nutsedge; Rate 1000 g/ha, scale 0 to 10 (0 no effect, 10 complete control)",0
same,Barnyardgrass plant response rating,bamyardgrass; [2],0
same,Barnyardgrass plant response rating,bamyardgrass; [9],0
same,Barnyardgrass plant response rating,bamyardgrass; [10],0
same,Barnyardgrass plant response rating,bamyardgrass; [11],0
same,"Plant response rating, Barnyardgrass",bamyardgrass; [12],0
same,Barnyardgrass plant response rating,bamyardgrass; [13],0
same,Barnyardgrass plant response rating,"bamyardgrass; Rate 2000 g/ha, Pre-emergence (as headed), scale 0 to 10, 0 no effect, 10 complete control",0
same,Barnyardgrass plant response rating,bamyardgrass; [14],0
same,Velvetleaf plant response rating,velvetleaf; [1],0
same,Velvetleaf plant response rating,velvetleaf; [2],0
same,"Plant response rating, Velvetleaf",velvetleaf; [3],0
same,"Plant response rating, Velvetleaf",velvetleaf; [4],0
same,Velvetleaf plant response rating,velvetleaf; [5],0
same,Velvetleaf plant response rating,velvetleaf; [6],0
same,"Plant response rating, Velvetleaf",velvetleaf; [7],0
same,Ducksalad plant response rating,duck salad; [2],0
same,Ducksalad plant response rating,duck salad; [9],0
same,Ducksalad plant response rating,duck salad; [10],0
same,Ducksalad plant response rating,duck salad; [11],0
same,"Plant response rating, Ducksalad",duck salad; [12],0
same,Ducksalad plant response rating,duck salad; [13],0
same,Ducksalad plant response rating,duck salad; [15],0
same,Ducksalad plant response rating,duck salad; [14],0
same,Wheat plant response rating,wheat; [1],0
same,Wheat plant response rating,wheat; [2],2
same,"Plant response rating, Wheat",wheat; [3],0
same,"Plant response rating, Wheat",wheat; [4],0
same,Wheat plant response rating,wheat; [5],0
same,Wheat plant response rating,wheat; [6],0
same,"Plant response rating, Wheat",wheat; [7],0
same,Corn plant response rating,corn; [1],0
same,Corn plant response rating,corn; [2],0
same,"Plant response rating, Corn",corn; [3],0
same,"Plant response rating, Corn",corn; [4],0
same,Corn plant response rating,corn; [5],0
same,Corn plant response rating,corn; [6],0
same,Corn plant response rating,corn; [8],0
same,"Plant response rating, Corn",corn; [7],0
same,Soybean plant response rating,soybean; [1],1
same,Soybean plant response rating,soybean; [2],5
same,"Plant response rating, Soybean",soybean; [3],0
same,"Plant response rating, Soybean",soybean; [4],0
same,Soybean plant response rating,soybean; [5],0
same,Soybean plant response rating,soybean; [6],0
same,"Plant response rating, Soybean",soybean; [7],0
same,Blackgrass plant response rating,blackgrass; [1],2
same,Blackgrass plant response rating,blackgrass; [2],6
same,"Plant response rating, Blackgrass",blackgrass; [3],0
same,"Plant response rating, Blackgrass",blackgrass; [4],0
same,Blackgrass plant response rating,blackgrass; [5],0
same,Blackgrass plant response rating,blackgrass; [6],0
same,Blackgrass plant response rating,blackgrass; [8],3
same,"Plant response rating, Blackgrass",blackgrass; [7],2
same,Giant foxtail plant response rating,giant foxtail; [1],3
same,Giant foxtail plant response rating,giant foxtail; [2],6
same,"Plant response rating, Giant foxtail",giant foxtail; [3],2
same,"Plant response rating, Giant foxtail",giant foxtail; [4],5
same,Giant foxtail plant response rating,giant foxtail; [5],8
same,Giant foxtail plant response rating,giant foxtail; [6],0
same,Giant foxtail plant response rating,giant foxtail; [8],5
same,"Plant response rating, Giant foxtail",giant foxtail; [7],9
same,S. Flatsedge plant response rating,smallflower flatsedge; [2],0
same,S. Flatsedge plant response rating,"smallflower flatsedge; Pre-emergence, Rate 1000 g/ha, scale 0 to 10 (0 no effect, 10 complete control)",0
same,S. Flatsedge plant response rating,smallflower flatsedge; [9],0
same,S. Flatsedge plant response rating,smallflower flatsedge; [10],0
same,"Plant response rating, S. Flatsedge",smallflower flatsedge; [12],0
same,S. Flatsedge plant response rating,smallflower flatsedge; [15],0
same,S. Flatsedge plant response rating,smallflower flatsedge; [14],0
same,Rape plant response rating,rape; [1],0
same,Rape plant response rating,rape; [2],0
same,"Plant response rating, Rape",rape; [3],0
same,"Plant response rating, Rape",rape; [4],0
same,Rape plant response rating,rape; [5],0
same,Rape plant response rating,rape; [6],0
same,Rape plant response rating,rape; [8],0
same,"Plant response rating, Rape",rape; [7],0
same,Crabgrass plant response rating,crabgrass; [1],1
same,Crabgrass plant response rating,crabgrass; [2],5
same,"Plant response rating, Crabgrass",crabgrass; [3],7
same,Crabgrass plant response rating,crabgrass; [5],8
same,Crabgrass plant response rating,crabgrass; [6],0
same,Crabgrass plant response rating,crabgrass; [8],3
same,"Plant response rating, Crabgrass",crabgrass; [7],8
same,Rice plant response rating,rice; [2],0
same,Rice plant response rating,rice; [9],0
same,Rice plant response rating,rice; [10],0
same,Rice plant response rating,rice; [11],0
same,"Plant response rating, Rice",rice; [12],0
same,Rice plant response rating,rice; [13],0
same,Rice plant response rating,rice; [15],0
same,Rice plant response rating,rice; [14],0
same,Bedstraw plant response rating,bedstraw; [1],0
same,Bedstraw plant response rating,bedstraw; [2],4
same,"Plant response rating, Bedstraw",bedstraw; [3],0
same,"Plant response rating, Bedstraw",bedstraw; [4],0
same,Bedstraw plant response rating,bedstraw; [5],0
same,Bedstraw plant response rating,bedstraw; [6],0
same,Bedstraw plant response rating,bedstraw; [8],0
same,"Plant response rating, Bedstraw",bedstraw; [7],0

# Source: US6737383B1, “Herbicidal oxadiazolidines” (priority 1999, dated 2004)
